Assay results as given in patent publication US11773063B1, “Pharmaceutically acceptable salts and compositions thereof” (priority 2022, dated 2023).
Where a name gives a salt, the structure may show the parent alone. Read-outs that look alike come from different tables or passages of the source.

Key:
[1] = Dissolution in hot MeOH (phosphate re-crystallisation); format: physicochemical; set-up: key to Observation (sample dissolution in hot MeOH): ✓ = solution; ✓/X = turbid solution; X = suspension
[2] = Polymorph assessment, slurry maturation in 10 solvents between 5 and 50° C.; format: physicochemical; conditions: 10 solvents, 5-50° C., 24 hours
Procedure: (§1) DR-2186-45-01 (20 mg, PHO Pattern 1+Extra Peaks) was weighed into 10 HPLC vials. To this was added 10 volumes (200 μL) of solvent, a stirrer bar and the samples heated to 50° C. on a Polar Bear heat/cool block (400 RPM). After holding at 50° C. for 30 minutes and observation was made and the samples cooled to 5° C. where a further observation was made. All samples were than subjected to heat/cool cycles between 5 and 50° C. holding for 4 hours at each temperature for 24 hours.
A polymorph assessment was carried out in 10 different solvents using PHO Pattern 1+extra peaks as the input material, maturating a slurry of the salt between 5° C. and 50° C. for 24 hours. The results of the XRPD analysis of the samples can be seen in FIG. 118. The isolated solid was the same as the input material in all cases other than MeOH.
as §1, with “DR-2186-46-01” for “DR-2186-45-01”, “TAR” for “PHO”, “1)” for “1+Extra Peaks)”
A polymorph assessment was carried out in 10 different solvents, maturating a slurry of the salt between 5° C. and 50° C. for 24 hours.

[3] = Dynamic Vapor Sorption (DVS), salt screen and scale-up salts; format: physicochemical
Procedure: Dynamic Vapor Sorption (DVS)
DVS analyses were performed on TA Instrument DVS Q5000. Samples were added to a pre-tared metallised quartz crucible and run at 25° C. from 40% RH to 90% RH, down to zero and back to 40%. This cycle was repeated in increments of 10% RH.

[4] = format: physicochemical; conditions: 40° C./75% RH, three days
Procedure: Physical Stability of Salts
Physical stability stress tests were conducted on generated crystalline salts at controlled temperature and relative humidity. The powder samples were stored at 40° C./75% RH for three days. After this time samples were analysed by XRPD to see whether the physical state of salts changed during the storage.

[5] = Storage at 40° C./75% RH for 1 week, XRPD (salts produced during scale-up); format: physicochemical; conditions: salt produced during scale-up
Procedure: Oxalate Salt HPLC Purity, DVS, Stability at 40° C./75% RH (XRPD and HPLC), PSD/Morphology Assessment

[6] = Solubility assessment in four different media; format: physicochemical; conditions: for pH after addition of 1.0 ml media at 37° C. / Observation: 250 mg per vial; for Observation: 1.0 ml media at 37° C.; for solubility: 37 °C, aqueous buffer, thermodynamic from solid, four different media
Procedure: Solubility assessments of 5-MeO-DMT oxalate, hydrobromide fumarate and benzoate were performed in four different media: […]

[7] = Thermo-Gravimetric Analysis (TGA), thermal stability; conditions: for thermal stability up to (TGA): nitrogen
Procedure: Thermo—Gravimetric Analysis (TGA)
TGA thermograms were obtained with a TA Instrument Discovery 550 in Al pans. The heating rate used was 10° C./min linear ramp from 25 to 400° C. with a nitrogen purging at a rate of 60 ml/min. TGA thermograms were analysed using TRIOS software.

[8] = Oxalate salt solubility by HPLC; format: physicochemical; conditions: for solubility: thermodynamic from solid, by HPLC, mother liquors adjusted to the desired pH, read-out: Solubility (mg/ml) of free base
Procedure: The calibration curve of the free base was prepared between 0.031-0.500 mg/ml and can be seen in FIG. 172.
Oxalate Salt Solubility by HPLC
Mother liquors were adjusted to the desired pH before HPLC quantification.

[9] = Storage at 40° C./75% RH and 25° C./97% RH for 7 days, XRPD and HPLC (Example 3); format: physicochemical
Procedure: FIG. 128. XRPD diffractogram overlay of 5-MeO-DMT Phosphate Pattern 1 before and after storage at 25° C./97% RH and 40° C./75% RH for 7 days.
FIG. 139. XRPD diffractogram overlay of 5-MeO-DMT Tartrate Pattern 1 before and after storage at 25° C./97% RH and 40° C./75% RH for 7 days.
The sample is classed as slightly hygroscopic with a total reversible mass change of 0.3 wt. % between 0-90% RH. The DVS isotherm and DVS kinetic plot can be seen in FIGS. 124 and 125, respectively. The solid form was unchanged after a double-cycle experiment, the XRPD analysis confirming this can be seen in FIG. 126.
The sample is classed as slightly hygroscopic with a total reversible mass change of 0.6 wt. % between 0-90% RH (FIG. 135). The solid-form was unchanged after the double-cycle experiment (FIG. 136).

[10] = DVS double-cycle experiment (Example 3); format: physicochemical

COc1ccc2[nH]cc(CCN(C)C)c2c1 [DR-2186-45-01, 5-MeO-DMT phosphate]
Observation (sample dissolution in hot MeOH) ([1]; 5 volumes of MeOH, 50° C., 1.00 g PHO Pattern 1+extra peaks): X | Observation (sample dissolution in hot MeOH) ([1]; 8 volumes of MeOH, 50° C.): X | Observation (sample dissolution in hot MeOH) ([1]; 12 volumes of MeOH, 50° C.): X | Observation (sample dissolution in hot MeOH) ([1]; 16 volumes of MeOH, 50° C.): X | Observation (sample dissolution in hot MeOH) ([1]; 18 volumes of MeOH, 50° C.): X | Observation (sample dissolution in hot MeOH) ([1]; 18 volumes of MeOH, 60° C.): X | Observation (sample dissolution in hot MeOH) ([1]; 20 volumes of MeOH, 60° C., 150 RPM, Easymax vessel overhead stirring): X | Observation (sample dissolution in hot MeOH) ([1]; 20 volumes of MeOH, 60° C., scintillation vial): X | Observation (sample dissolution in hot MeOH) ([1]; 22 volumes of MeOH, 60° C., Easymax vessel overhead stirring): X | Observation (sample dissolution in hot MeOH) ([1]; 24 volumes of MeOH, 60° C., Easymax vessel overhead stirring): ✓/X | Observation (sample dissolution in hot MeOH) ([1]; 25 volumes of MeOH, 60° C., 250 RPM, Easymax vessel overhead stirring): ✓ | volumes of MeOH at which dissolution was achieved ([1]; MeOH at 60° C., 1.00 g): 25 volumes | dissolution in 10 volumes of solvent ([2]; listed as PHO Pattern 1+Extra Peaks): Non of the samples completely dissolved

COc1ccc2[nH]cc(CCN(C)C)c2c1 [Fumarate salt, 5-MeO-DMT fumarate]
change of crystalline form during the DVS experiment (DVS / post-DVS XRPD) [3]: a change in crystalline form occurred | mass difference between 40% RH and 0% RH ([3]; DVS, salt produced during scale-up): ~2.84% | crystalline form after storage (XRPD) [4]: some additional peaks were also observed | crystalline form after storage (XRPD) [5]: mixture of form/pattern 1 and form/pattern 2 | pH after addition of 1.0 ml media at 37° C. ([6]; SNF): 5.14 | Observation ([6]; SNF): Clear solution | solubility ([6]; four media: SNF, pH 1.2, pH 4.5 and pH 6.8 media): ≥ 250 mg/mL | pH after addition of 1.0 ml media at 37° C. ([6]; pH 1.2 buffer): 5.24 | Observation ([6]; pH 1.2 buffer): Clear solution | pH after addition of 1.0 ml media at 37° C. ([6]; pH 4.5 buffer): 5.31 | Observation ([6]; pH 4.5 buffer): Clear solution | pH after addition of 1.0 ml media at 37° C. ([6]; pH 6.8 buffer): 5.79 | Observation ([6]; pH 6.8 buffer): Clear solution | thermal stability up to (TGA) ([7]; 10° C./min): 150 °C

Br.COc1ccc2[nH]cc(CCN(C)C)c2c1 [Hydrobromide salt, 5-MeO-DMT hydrobromide]
change of crystalline form during the DVS experiment (DVS / post-DVS XRPD) [3]: no change in crystalline form | hygroscopicity class ([3]; DVS, 25° C.): non-hygroscopic | crystalline form after storage (XRPD) [4]: No change in crystalline form | crystalline form after storage (XRPD) [5]: no change in crystalline form | solubility compared to other salts [6]: high solubility | solubility [6]: ≥ 250 mg/mL | pH after addition of 1.0 ml media at 37° C. ([6]; SNF): 8.13 | Observation ([6]; SNF): Clear solution | pH after addition of 1.0 ml media at 37° C. ([6]; pH 1.2 buffer): 8.09 | Observation ([6]; pH 1.2 buffer): Clear solution | pH after addition of 1.0 ml media at 37° C. ([6]; pH 4.5 buffer): 7.65 | Observation ([6]; pH 4.5 buffer): Clear solution | pH after addition of 1.0 ml media at 37° C. ([6]; pH 6.8 buffer): 7.82 | Observation ([6]; pH 6.8 buffer): Clear solution | thermal stability up to (TGA) ([7]; 10° C./min): 220 °C | temperature with 95% of weight remaining (TGA) ([7]; Ramp 10° C./min to 400° C., salt produced during scale-up): 269 °C

COc1ccc2[nH]cc(CCN(C)C)c2c1 [Oxalate salt, 5-MeO-DMT oxalate]
change of crystalline form during the DVS experiment (DVS / post-DVS XRPD) [3]: no change in the crystalline form | crystalline form after storage (XRPD) [5]: no change in crystalline form | form of isolated solids after solubility experiment (XRPD) [8]: no change in form | solubility ([8]; fassgf or other biorelevant, SNF): 20.2 mg/mL | solubility ([8]; pH 4.5 medium, aqueous buffer, pH 4.5): 35.5 mg/mL | solubility ([8]; pH 6.8 medium, aqueous buffer, pH 6.8): 26.9 mg/mL

COc1ccc2[nH]cc(CCN(C)C)c2c1 [Tartrate Pattern 1, 5-MeO-DMT tartrate]
change by XRPD or HPLC after storage ([9]; 25° C./97% RH): no change | Static Storage 7 days - 40° C./75% RH, XRPD ([9]; 40° C./75% RH): KRPD-TAR Pattern 1 | change by XRPD or HPLC after storage ([9]; 40° C./75% RH): no change | Static Storage 7 days - 40° C./75% RH, HPLC ([9]; 40° C./75% RH, HPLC purity): HPLC-97.8% | TGA mass loss before decomposition [7]: No mass loss observed in sample before | start of decomposition / complete mass loss (TGA) ([7]; 10° C./min): 175 °C | solid form after double-cycle DVS experiment (XRPD) [10]: unchanged | total reversible mass change between 0-90% RH ([10]; DVS): 0.6 wt. % | hygroscopicity class ([10]; DVS 0-90% RH, Example 3): slightly hygroscopic (Pharmaceuticals that pick up between 0.2% and 2.0% moisture at 80% RH are considered slightly hygroscopic) | GVS total mass change as mol eq. water ([10]; from 0-90% RH): RH (0.12 mol eq. of water) and is reversible with mol eq. water | GVS total mass change ([10]; from 0-90% RH, double cycle): Total mass change of 0.58 wt. % from 0-90% | Solid form of the material after GVS by XRPD ([10]; post GVS): unchanged by XRPD. | dissolution in 10 volumes of solvent [2]: No dissolution was observed
